Source: patent publication US20230389548A1, “MIXTURES OF PYRIMIDINES AS HERBICIDAL COMPOSITIONS” (SYNGENTA CROP PROTECTION AG, priority 2020, published 2023)

Experiments:
Test in all cases: Post-emergence glasshouse spray test, visual percentage phytotoxicity after 13 days
Format in all cases: in vivo
[1] = test system: Alopecurus myosuroides (ALOMY); conditions: for ALOMY percentage phytotoxicity: B1
Method: (§1) Seeds of Setaria faberi (SETFA), Echinochloa crus-galli (ECHCG), Digitaria sanguinalis (DIGSA), Lolium perenne (LOLPE), Alopecurus myosuroides (ALOMY), Chenopodium album (CHEAL), Ipomoea hederacea (IPOHE), Stellaria media (STEME), Abutilon threophrasti (ABUTH), Amaranthus retroflexus (AMARE) were sown in standard sterilised soil in pots. After cultivation for 8 days under controlled conditions in a glasshouse (at 24/19° C., day/night; 16 hours light; no humidity control), the plants were sprayed at 500 l/Ha with an aqueous spray solution derived from the formulation of the technical active ingredients in a small amount of acetone and a solvent and emulsifier mixture referred to as IF50 (11.12% Emulsogen EL360™+44.44% N-methylpyrrolidone+44.44% Dowanol DPM glycol ether), to create a 50 g/l solution which was then diluted using 0.2% Genapol XO80 (CAS Number: 9043-30-5) as diluent to give the desired final dose of test compound.
(§2) Where active ingredients were applied as mixtures, aqueous spray solutions were prepared as above, containing both active ingredients.
(§3) The test plants were then grown under controlled conditions in a glasshouse (at 24/18° C., day/night; 15 hours light; 50% humidity) and watered twice daily. After 13 days, the test was evaluated visually for percentage phytotoxicity to the plants (where 100=total damage to plant; 0=no damage to plant; and NC=not captured) when compared to control untreated plants. Two to four replicates were applied for each treatment in a randomised block test design.
(§4) 22., E=X+Y−(X*Y/100), where
(§5) X=average percent phytotoxicity of herbicide A when applied at a certain rate Y=average percent phytotoxicity using herbicide B when applied at a certain rate E=the expected effect of the mixture of herbicides A and B as calculated from the Colby formula.

Stellaria media (STEME) = conditions: B1
Method: as §1, §2, §3, §4, §5

[2] = test system: Abutilon threophrasti (ABUTH); conditions: for ABUTH percentage phytotoxicity: B1
Method: as §1, §2, §3, §4, §5

[3] = test system: Ipomoea hederacea (IPOHE); conditions: for IPOHE percentage phytotoxicity: B1; for Observed phytotoxicity IPOHE: B2.4.5
Method: as §1, §2, §3, §4, §5

[4] = test system: Chenopodium album (CHEAL); conditions: for CHEAL percentage phytotoxicity: B1
Method: as §1, §2, §3, §4, §5

Setaria faberi (SETFA) = conditions: for SETFA percentage phytotoxicity: B1
Method: as §1, §2, §3, §4, §5

[5] = test system: Amaranthus retroflexus (AMARE); conditions: for AMARE percentage phytotoxicity: B1
Method: as §1, §2, §3, §4, §5

[6] = test system: Digitaria sanguinalis (DIGSA); conditions: for DIGSA percentage phytotoxicity: B1
Method: as §1, §2, §3, §4, §5

Lolium perenne (LOLPE) = conditions: for LOLPE percentage phytotoxicity: B1
Method: as §1, §2, §3, §4, §5

In the case of `CS(=O)(=O)c1ccc(C(=O)C2C(=O)CCCC2=O)c(Cl)c1OCCC1OCCO1` [B-II], the ALOMY percentage phytotoxicity ([1]; 0.625 g/ha post-emergence) is reported as 0%, the ALOMY percentage phytotoxicity ([1]; 1.25 g/ha post-emergence) is reported as 0% and the ALOMY percentage phytotoxicity ([1]; 2.5 g/ha post-emergence) is reported as 0%. For the same compound, the ALOMY percentage phytotoxicity ([1]; 5 g/ha post-emergence) was 0%, the ALOMY percentage phytotoxicity ([1]; 10 g/ha post-emergence) was 0% and the “Observed phytotoxicity ALOMY” value ([1]; B2.4.4, 10 g/ha post-emergence) was 0%. It also gave an STEME percentage phytotoxicity (Stellaria media (STEME); 0.625 g/ha post-emergence) of 0%, an STEME percentage phytotoxicity (Stellaria media (STEME); 1.25 g/ha post-emergence) of 13% and an STEME percentage phytotoxicity (Stellaria media (STEME); 2.5 g/ha post-emergence) of 45%. For the same compound, the STEME percentage phytotoxicity (Stellaria media (STEME); 5 g/ha post-emergence) was 35%, the STEME percentage phytotoxicity (Stellaria media (STEME); 10 g/ha post-emergence) was 38% and the ABUTH percentage phytotoxicity ([2]; 0.625 g/ha post-emergence) was 3%. For the same compound, the ABUTH percentage phytotoxicity ([2]; 1.25 g/ha post-emergence) was 38%, the ABUTH percentage phytotoxicity ([2]; 2.5 g/ha post-emergence) was 50% and the ABUTH percentage phytotoxicity ([2]; 5 g/ha post-emergence) was 58%. For the same compound, the ABUTH percentage phytotoxicity ([2]; 10 g/ha post-emergence) was 63%, the “Observed phytotoxicity ABUTH” value ([2]; B2.4.6, 0.625 g/ha post-emergence) was 3% and the IPOHE percentage phytotoxicity ([3]; 0.625 g/ha post-emergence) was 3%. For the same compound, the IPOHE percentage phytotoxicity ([3]; 1.25 g/ha post-emergence) was 10%, the IPOHE percentage phytotoxicity ([3]; 2.5 g/ha post-emergence) was 23% and the IPOHE percentage phytotoxicity ([3]; 5 g/ha post-emergence) was 38%. The IPOHE percentage phytotoxicity ([3]; 10 g/ha post-emergence) was 48%, the “Observed phytotoxicity IPOHE” value ([3]; 2.5 g/ha post-emergence) was 23% and the “Observed phytotoxicity IPOHE” value ([3]; 10 g/ha post-emergence) was 48%. The CHEAL percentage phytotoxicity ([4]; 0.625 g/ha post-emergence) was 0%, the CHEAL percentage phytotoxicity ([4]; 1.25 g/ha post-emergence) was 0% and the CHEAL percentage phytotoxicity ([4]; 2.5 g/ha post-emergence) was 38%. The CHEAL percentage phytotoxicity ([4]; 5 g/ha post-emergence) was 53%, the CHEAL percentage phytotoxicity ([4]; 10 g/ha post-emergence) was 65% and the “Observed phytotoxicity CHEAL” value ([4]; B2.4.7, 1.25 g/ha post-emergence) was 0%. The SETFA percentage phytotoxicity (Setaria faberi (SETFA); 0.625 g/ha post-emergence) was 0%, the SETFA percentage phytotoxicity (Setaria faberi (SETFA); 1.25 g/ha post-emergence) was 0% and the SETFA percentage phytotoxicity (Setaria faberi (SETFA); 2.5 g/ha post-emergence) was 0%. The SETFA percentage phytotoxicity (Setaria faberi (SETFA); 5 g/ha post-emergence) was 0%, the SETFA percentage phytotoxicity (Setaria faberi (SETFA); 10 g/ha post-emergence) was 3% and the “Observed phytotoxicity SETFA” value (Setaria faberi (SETFA); B2.4.1, 5 g/ha post-emergence) was 0%. It also gave an AMARE percentage phytotoxicity ([5]; 0.625 g/ha post-emergence) of 0%, an AMARE percentage phytotoxicity ([5]; 1.25 g/ha post-emergence) of 5% and an AMARE percentage phytotoxicity ([5]; 2.5 g/ha post-emergence) of 10%. For the same compound, the AMARE percentage phytotoxicity ([5]; 5 g/ha post-emergence) was 28%, the AMARE percentage phytotoxicity ([5]; 10 g/ha post-emergence) was 48% and the “Observed phytotoxicity AMARE” value ([5]; B2.4.8, 2.5 g/ha post-emergence) was 10%. For the same compound, the DIGSA percentage phytotoxicity ([6]; 0.625 g/ha post-emergence) was 0%, the DIGSA percentage phytotoxicity ([6]; 1.25 g/ha post-emergence) was 0% and the DIGSA percentage phytotoxicity ([6]; 2.5 g/ha post-emergence) was 0%. The DIGSA percentage phytotoxicity ([6]; 5 g/ha post-emergence) was 0%, the DIGSA percentage phytotoxicity ([6]; 10 g/ha post-emergence) was 0% and the “Observed phytotoxicity DIGSA” value ([6]; B2.4.2, 2.5 g/ha post-emergence) was 0%. The “Observed phytotoxicity DIGSA” value ([6]; B2.4.2, 5 g/ha post-emergence) was 0%, the “Observed phytotoxicity DIGSA” value ([6]; B2.4.2, 10 g/ha post-emergence) was 0% and the LOLPE percentage phytotoxicity (Lolium perenne (LOLPE); 0.625 g/ha post-emergence) was 0%. For the same compound, the LOLPE percentage phytotoxicity (Lolium perenne (LOLPE); 1.25 g/ha post-emergence) was 0%, the LOLPE percentage phytotoxicity (Lolium perenne (LOLPE); 2.5 g/ha post-emergence) was 0% and the LOLPE percentage phytotoxicity (Lolium perenne (LOLPE); 5 g/ha post-emergence) was 0%. For the same compound, the LOLPE percentage phytotoxicity (Lolium perenne (LOLPE); 10 g/ha post-emergence) was 0%, the “Observed phytotoxicity LOLPE” value (Lolium perenne (LOLPE); B2.4.3, 5 g/ha post-emergence) was 0% and the “Observed phytotoxicity LOLPE” value (Lolium perenne (LOLPE); B2.4.3, 10 g/ha post-emergence) was 0%.
For `COc1c(Cl)ccc(-c2nc(C(=O)OCc3ccccc3)c(Cl)c(N)c2F)c1F` [B-I], the ALOMY percentage phytotoxicity ([1]; 0.625 g/ha post-emergence) was 0%, the ALOMY percentage phytotoxicity ([1]; 1.25 g/ha post-emergence) was 0% and the ALOMY percentage phytotoxicity ([1]; 2.5 g/ha post-emergence) was 0%. The ALOMY percentage phytotoxicity ([1]; 5 g/ha post-emergence) was 0%, the ALOMY percentage phytotoxicity ([1]; 10 g/ha post-emergence) was 3% and the STEME percentage phytotoxicity (Stellaria media (STEME); 0.625 g/ha post-emergence) was 50%. For the same compound, the STEME percentage phytotoxicity (Stellaria media (STEME); 1.25 g/ha post-emergence) was 58%, the STEME percentage phytotoxicity (Stellaria media (STEME); 2.5 g/ha post-emergence) was 75% and the STEME percentage phytotoxicity (Stellaria media (STEME); 5 g/ha post-emergence) was 70%. It also gave an STEME percentage phytotoxicity (Stellaria media (STEME); 10 g/ha post-emergence) of 85%, an ABUTH percentage phytotoxicity ([2]; 0.625 g/ha post-emergence) of 75% and an ABUTH percentage phytotoxicity ([2]; 1.25 g/ha post-emergence) of 83%. For the same compound, the ABUTH percentage phytotoxicity ([2]; 2.5 g/ha post-emergence) was 80%, the ABUTH percentage phytotoxicity ([2]; 5 g/ha post-emergence) was 80% and the ABUTH percentage phytotoxicity ([2]; 10 g/ha post-emergence) was 85%. The IPOHE percentage phytotoxicity ([3]; 0.625 g/ha post-emergence) was 13%, the IPOHE percentage phytotoxicity ([3]; 1.25 g/ha post-emergence) was 33% and the IPOHE percentage phytotoxicity ([3]; 2.5 g/ha post-emergence) was 58%. It also gave an IPOHE percentage phytotoxicity ([3]; 5 g/ha post-emergence) of 55%, an IPOHE percentage phytotoxicity ([3]; 10 g/ha post-emergence) of 53% and a CHEAL percentage phytotoxicity ([4]; 0.625 g/ha post-emergence) of 63%. For the same compound, the CHEAL percentage phytotoxicity ([4]; 1.25 g/ha post-emergence) was 63%, the CHEAL percentage phytotoxicity ([4]; 2.5 g/ha post-emergence) was 60% and the CHEAL percentage phytotoxicity ([4]; 5 g/ha post-emergence) was 70%. The CHEAL percentage phytotoxicity ([4]; 10 g/ha post-emergence) was 75%, the SETFA percentage phytotoxicity (Setaria faberi (SETFA); 0.625 g/ha post-emergence) was 0% and the SETFA percentage phytotoxicity (Setaria faberi (SETFA); 1.25 g/ha post-emergence) was 0%. The SETFA percentage phytotoxicity (Setaria faberi (SETFA); 2.5 g/ha post-emergence) was 5%, the SETFA percentage phytotoxicity (Setaria faberi (SETFA); 5 g/ha post-emergence) was 3% and the SETFA percentage phytotoxicity (Setaria faberi (SETFA); 10 g/ha post-emergence) was 20%. The AMARE percentage phytotoxicity ([5]; 0.625 g/ha post-emergence) was 53%, the AMARE percentage phytotoxicity ([5]; 1.25 g/ha post-emergence) was 58% and the AMARE percentage phytotoxicity ([5]; 2.5 g/ha post-emergence) was 65%. It also gave an AMARE percentage phytotoxicity ([5]; 5 g/ha post-emergence) of 58%, an AMARE percentage phytotoxicity ([5]; 10 g/ha post-emergence) of 70% and a DIGSA percentage phytotoxicity ([6]; 0.625 g/ha post-emergence) of 0%. For the same compound, the DIGSA percentage phytotoxicity ([6]; 1.25 g/ha post-emergence) was 3%, the DIGSA percentage phytotoxicity ([6]; 2.5 g/ha post-emergence) was 5% and the DIGSA percentage phytotoxicity ([6]; 5 g/ha post-emergence) was 0%. The DIGSA percentage phytotoxicity ([6]; 10 g/ha post-emergence) was 10%, the “Observed phytotoxicity DIGSA” value ([6]; B2.5.1, 5 g/ha post-emergence) was 0% and the LOLPE percentage phytotoxicity (Lolium perenne (LOLPE); 0.625 g/ha post-emergence) was 0%. It also gave an LOLPE percentage phytotoxicity (Lolium perenne (LOLPE); 1.25 g/ha post-emergence) of 0%, an LOLPE percentage phytotoxicity (Lolium perenne (LOLPE); 2.5 g/ha post-emergence) of 0% and an LOLPE percentage phytotoxicity (Lolium perenne (LOLPE); 5 g/ha post-emergence) of 0%. The LOLPE percentage phytotoxicity (Lolium perenne (LOLPE); 10 g/ha post-emergence) was 5% and the “Observed phytotoxicity LOLPE” value (Lolium perenne (LOLPE); B2.5.2, 5 g/ha post-emergence) was 0%.
